Molecular target: T1, human CB2 (Homo sapiens, UniProt P34972)
T1 construct: expressed in transfected cells; host or cells: HEK-293T (transient transfection, membrane preparation)
Assay: CB2 receptor binding assay, block of [3H]-CP 55,940 binding
Conditions: membranes of HEK-293T cells transfected with human CB2 cDNA; 1.5 nM [3H]-CP 55,940
Protocol: Membrane preparation—HEK-293T cells were cultured according to ATCC (Manassas, Va.) guidelines and transfected with human CB2 cDNA (SEQ ID NO:1) (Genbank X74328), operably linked to the SV40 promoter, using Polyfect (Qiagen, Valencia, Calif.) or Fugene (Roche, Nutley, N.J.) according to manufacturer's instructions. 48 h after transfection cells were harvested in ice cold membrane buffer (20 mM HEPES, 6 mM MgCl2, 1 mM EDTA, pH 7.2) using a cell scraper. Cells were transferred to a nitrogen cavitation chamber and a pressure of […] was applied for 30 min. The pressure was released and the cell debris was collected and centrifuged at 1000 g at 4° C. for 10 min. The supernatant was collected and the spin was repeated until the supernatant was free of precipitate. Membranes were then pelleted by centrifugation at 12.000 g at 4° C. for 20 min. Membranes were resuspended in an appropriate amount of membrane buffer. The membrane concentration was determined using a BioRad (Hercules, Calif.) protein assay dye reagent according to manufacturer's instructions. Membranes were diluted to 1 mg/ml and aliquots snap-frozen in liquid nitrogen and store at −80° C.
Binding assay—0.5-10 ng of membranes were incubated in binding buffer (50 mM Tris, 0.5 mM EDTA, 0.1% BSA, pH 7.4) in the presence of 1.5 nM radioligand ([^3H]-CP 55,940 Perkin Elmer) and varying concentrations of ligands (total volume 100 μL in a 96 well plate). Membranes were filtered onto a 96 well GF/B filterplate (Packard Bioscience, Shelton, Conn.) and washed with […] wash buffer (25 mM HEPES, 1 mM CaCl2, 5 mM MgCl2, 0.25M NaCl) using a Filtermate 196 Harvester (Packard Instruments, Downers Grove, Ill.). The filter plates were dried under a heat lamp before addition of 50 μL of scintillation fluid to each well (Microscint 20, Packard, Shelton, Conn.). Plates were counted on a Topcount NXT (Packard, Shelton, Conn.).
Data Analysis—Graphs were plotted and KD values were determined by nonlinear regression analysis using Prism software (GraphPad version 4.0, San Diego, Calif., USA).

T1 sequence (P34972 whole entry): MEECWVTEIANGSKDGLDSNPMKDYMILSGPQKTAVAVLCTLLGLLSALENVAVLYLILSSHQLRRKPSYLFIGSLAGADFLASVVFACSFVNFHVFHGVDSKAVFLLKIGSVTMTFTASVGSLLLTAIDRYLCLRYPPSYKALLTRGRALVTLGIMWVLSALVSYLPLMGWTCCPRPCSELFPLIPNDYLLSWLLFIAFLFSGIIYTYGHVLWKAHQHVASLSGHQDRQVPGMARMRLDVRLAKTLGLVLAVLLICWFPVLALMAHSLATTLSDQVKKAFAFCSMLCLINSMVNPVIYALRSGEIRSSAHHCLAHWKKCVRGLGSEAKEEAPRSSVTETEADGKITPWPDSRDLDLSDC

| pKi | Ki [µM] | SMILES |
| --- | --- | --- |
| 7.5 | – | FCCOc1ccc2nc(-c3c(F)cccc3Cl)c(Nc3ccc4c(c3)OCCO4)n2c1 [CR-41] |
| 7.2 | – | Cc1cccc2nc(-c3ncccc3F)c(Nc3ccc4c(c3)OCCO4)n12 [CR-57] |
| 5.9 | – | COc1cc(O)ccc1-c1nc2ccncn2c1Nc1ccc2c(c1)OCCO2 [CR-120] |
| 6.7 | – | COc1cc(-c2nc3ccc(Cl)cn3c2Nc2ccc3c(c2)OCCO3)ccc1O [CR-77] |
| 6.7 | – | COc1cc(O)ccc1-c1nc2ccc(C)cn2c1Nc1ccc2c(c1)OCCO2 [CR-85] |
| 8.3 | – | COc1cccc2nc(-c3c(C)cc(OCCF)cc3C)c(Nc3ccc4c(c3)OCCO4)n12 [CR-21] |
| 6.2 | – | COc1cccc(OC)c1-c1nc2ccccn2c1Nc1ccc2c(c1)OCCO2 [CR-116] |
| 5.8 | – | COc1cccc(OC)c1-c1nc2cnccn2c1Nc1ccc2c(c1)OCCO2 [CR-118] |
| 5.9 | – | Cc1ccn2c(Nc3ccc4c(c3)OCCO4)c(-c3ccccn3)nc2c1 [CR-119] |
| 8.3 | – | COc1cccc2nc(-c3c(C)cc(OCCO)cc3C)c(Nc3ccc4c(c3)OCCO4)n12 [CR-5] |
| 6.7 | – | COc1cc(-c2nc3ccc(C)cn3c2Nc2ccc3c(c2)OCCO3)ccc1O [CR-81] |
| 6.7 | – | Cc1cccc2nc(-c3cccc(F)n3)c(Nc3ccc4c(c3)OCCO4)n12 [CR-84] |
| 8.0 | – | Cc1cccc2nc(-c3c(F)cccc3Cl)c(Nc3ccc4c(c3)OCCO4)n12 [CR-25] |
| 7.5 | – | Fc1ccc2nc(-c3c(F)cccc3Cl)c(Nc3ccc4c(c3)OCCO4)n2c1 [CR-40] |
| 9.2 | – | COc1cccc2nc(-c3c(Cl)ccc(OCF)c3F)c(Nc3ccc4c(c3)OCCO4)n12 [CR-10] |
| 8.2 | – | COc1cccc2nc(-c3c(Cl)cc(O)cc3Cl)c(Nc3ccc4c(c3)OCCO4)n12 [CR-23] |
| 6.5 | – | COc1cc(-c2nc3ccncn3c2Nc2ccc3c(c2)OCCO3)ccc1O [CR-98] |
| 8.7 | – | COc1ccc2nc(-c3c(F)cccc3Cl)c(Nc3ccc4c(c3)OCCO4)n2c1 [CR-13] |
| 6.8 | – | COc1cc(-c2nc3ccccn3c2Nc2ccc3c(c2)OCCO3)ccc1O [CR-71] |
| 8.6 | – | COc1cccc2nc(-c3c(F)ccc(O)c3Cl)c(Nc3ccc4c(c3)OCCO4)n12 [CR-2] |
| 7.3 | – | Cc1cccc2nc(-c3c(F)cc(C#N)cc3F)c(Nc3ccc4c(c3)OCCO4)n12 [CR-53] |
| 6.8 | – | COc1cc(-c2nc3cnccn3c2Nc2ccc3c(c2)OCCO3)ccc1O [CR-75] |
| – | 0.0398 | Fc1cncc(F)c1-c1nc2cccc(OCC[18F])n2c1Nc1ccc2c(c1)OCCO2 [CR-135] |
| 8.2 | – | COc1cccc2nc(-c3c(C)cncc3C)c(Nc3ccc4c(c3)OCCO4)n12 [CR-139] |
| 5.9 | – | COc1cccc(F)c1-c1nc2cnccn2c1Nc1ccc2c(c1)OCCO2 [CR-125] |
| 6.8 | – | COc1cc(-c2nc3c(C)cccn3c2Nc2ccc3c(c2)OCCO3)ccc1O [CR-72] |
